Experimental data published in patent publication US5352665A, “Method of treating disease caused by the infection of virus” (Mitsui Toatsu Chemicals, Incorporated, priority 1987, dated 1994).
Square brackets hold non-standard residues; d marks the D form. Peptide text beside a SMILES is read from it. pGlu = O=C1CC[C@@H](C(=O)O)N1

Key:
[1] = tested on: REO virus type II; experiment: Jerne plaque assay (anti-SRBC hemolysis plaques) in new-born NC mice infected with REO virus; format: in vivo, mouse; conditions: for PFC/10^6 spleen cells (number of hemolysis plaques): measured 4 days later; for therapeutic effect on immune inhibition (in words): administered together with SRBC to infected NC mice, LPS 5 μg/mouse, MDP 20 μg/mouse
Protocol: Two weeks after the infection of 10^5 PFU REO virus, sheep red blood cells (referred to hereinafter simply as SRBC) was intraperitoneally administered and 4 days after the administration, the number of hemolysis plaques was measured by way of Jerne plaque assay as a production amount of antibody-forming cells against SRBC. The number of hemolysis plaques was 15±2 per 10^6 spleen cells in a group not infected with REO virus, while that was 2.8±1.6 in an infected group, thus showing a remarkable immunity inhibitory state. In compliance with this, atrophy of thymus and decrease in the number of thymic cortex lymphocytes were observed.
On the other hand, the effective ingredient of this invention dissolved in physiological saline was administered in an amount of 10 μg/mouse simultaneously with SRBC to mice, and 4 days after the administration, the number of hemolysis plaques was measured whereupon the number was 22±5. […] In a group to which muramyl dipeptide was administered in an amount of 20 μg/mouse together with Freund incomplete adjuvant, the number of hemolysis plaques was 11±2.
Next, recovery of the immune function by immunity-enhancing substance was examined, using new-born mice infected with REO virus type II. Two weeks after the infection of the mice with the virus, sheep red blood cells were administered to the mice, and 4 days after the administration, Jerne plaque assay was carried out to measure the number of hemolysis plaques. The number was 15±2 in a group of the mice not infected and was 2.8±1.6 in a group of the infected mice. […] This recovery of the function of immune inhibition is tabulated as follows:
Mice infected with virus was immunized at the same time with SRBC and an immunostimulant, and 4 days after the immunization, the number of hemolysis plaques was measured by Jerne plaque assay.
After mice being infected with REO virus, 10 μg 1 μg or 0.1 μg of FTS was administered to the mice. After 18 days, inhibition of immunity and recovery of its function were observed by way of Jerne plaque assay.
Virus: REO virus type II, innoculation 1×10^5 PFU/mouse

[2] = Toxicity test, repeated subcutaneous administration to rats; format: in vivo, rat; conditions: 30 mg/kg subcutaneously for consecutive 21 days
Description: (§1) Thus, the medicament of the present invention is a safe medicament of extremely low toxicity and can be administered for a long period of time.

[3] = Toxicity test, repeated subcutaneous administration to mice; format: in vivo, mouse
Description: as §1

Compound	PFC/10^6 spleen cells (number of hemolysis plaques) ([1]; LPS 5 μg/mouse with SRBC 2 weeks after 10^5 PFU REO virus)	PFC/10^6 spleen cells (number of hemolysis plaques) ([1]; LPS 5 μg/mouse with SRBC 2 weeks after 10^5 PFU REO virus, listed as lipopolysaccharide (LPS))	therapeutic effect on immune inhibition (in words) [1]	abnormal symptom in external behavior observation, biochemical diagnosis of sera and pathological anatomy ([2]; rats)	toxicity ([2]; wister rats of 5 weeks old)	toxicity ([3]; 50 mg/kg and 100 mg/kg subcutaneously for consecutive 14 days, ddy male mice of 5 weeks old)	abnormal symptom by external check ([3]; 100 mg/kg subcutaneously every day for consecutive 14 days, mice)	PFC/10^6 spleen cells (number of hemolysis plaques) ([1]; MDP 20 μg/mouse with Freund incomplete adjuvant and SRBC 2 weeks after 10^5 PFU REO virus)	PFC/10^6 spleen cells (number of hemolysis plaques) ([1]; MDP 20 μg/mouse with Freund incomplete adjuvant and SRBC 2 weeks after 10^5 PFU REO virus, listed as muramyl dipeptide)
lipopolysaccharide [LPS]	0.3 ± 0.4 PFC/10^6 spleen cells	0.3±0.4 PFC/10^6 spleen cells	no therapeutic effect	–	–	–	–	–	–
C[C@H](NC(=O)[C@@H]1CCC(=O)N1)C(=O)N[C@@H](CCCCN)C(=O)N[C@@H](CO)C(=O)N[C@@H](CCC(N)=O)C(=O)NCC(=O)NCC(=O)N[C@@H](CO)C(=O)N[C@@H](CC(N)=O)C(=O)O [FTS, pGlu-Ala-Lys-Ser-Gln-Gly-Gly-Ser-Asn] ([pGlu]AKSQGGSN-OH)	–	–	–	no abnormal symptom was found	No toxicity was observed	No toxicity was observed	no abnormal symptom was found	–	–
CC(=O)N[C@H]1C(O)O[C@H](CO)[C@@H](O)[C@@H]1O[C@H](C)C(=O)N[C@@H](C)C(=O)N[C@H](CCC(=O)O)C(N)=O (mixture of isomers) [MDP, muramyl dipeptide]	–	–	showing a therapeutic effect	–	–	–	–	11 ± 2 PFC/10^6 spleen cells	11±2 PFC/10^6 spleen cells
